# From paper PMC4719211, “Comparative Pharmacokinetics of three major bioactive components in rats after oral administration of Typhae Pollen-Trogopterus Feces drug pair before and after compatibility” (DARU Journal of Pharmaceutical Sciences, 2016)
# Test: Pharmacokinetic study in rats after oral administration of Typhae Pollen / Typhae Pollen-Trogopterus Feces decoctions (plasma, UPLC-TQ/MS)
# Assay type: in vivo, female Sprague–Dawley (SD) rats
# Conditions: n = 6, noncompartment model; for Cmax / Tmax / half-life: female, Sprague-Dawley, rat, po; for AUC0~t: rat plasma
# Protocol: An ACQUITY UPLC BEH C18 column (2.1 mm × 100 mm, 1.7 μm, Waters Corp., Milford, MA, USA) was applied and the column temperature was maintained at 35 °C. The mobile phase was composed of A (0.1 % aqueous formic acid) and B (acetonitrile) using a gradient elution of 5–10 % B at 0–1 min, 10–30 % B at 1–6 min, 30–40 % B at 6–7 min, 40–95 % B at 7–8 min, 95–5 % B at 8–9 min, […] with a flow rate set at 0.4 mL/min. The auto-sampler was conditioned at 4 °C and the injection volume was 5 μL.
# Mass spectrometry detection was performed by using a Xevo Triple Quadrupole MS (Waters Corp., Milford, MA) equipped with an electrospray ionization source (ESI). The ESI source was set in positive ionization mode. The scanning mode was set multiple reaction monitoring (MRM) mode. Parameters set in the source were as follows: the capillary voltage at 1 kV; sampling cone voltage of 30 V; source temperature […]; desolvation temperature 550 °C; dwell time was automatically set by MassLynx (Waters Corp., Milford, MA, USA).
# A 200 μL aliquot of plasma sample was added with 10 μL diphenhydramine hydrochloride working solution and 600 μL of methanol. After vortex for 2 min and centrifugation at 13,000 rpm for 10 min, the supernatant was transferred to another 1.5 mL tube and concentrated in the centrifuge enrichment apparatus at 37 °C.
# Finally, each residue was reconstituted in 200 μL 70 % methanol, then vortexed for 3 min and centrifuged at 13,000 rpm for 10 min. 5 μL of supernatant was injected into the UPLC-TQ/MS system for analysis.
# All experiments were performed on female Sprague–Dawley (SD) rats, weighing 220–250 g, obtained from Shanghai Slac Laboratory Animal Co., Ltd. (Shanghai, China). They were kept in plastic cages at 22 ± 2 °C and a relative humidity of 50–65 %, with free access to pellet food and water on a 12 h light/dark cycle. Animal welfare and experimental procedures strictly conformed to the Guide for the Care and Use of Laboratory Animals and the related ethics regulations of Nanjing University of Chinese Medicine.
# For pharmacokinetic studies, the SD rats were divided into four groups randomly (n = 6 per group), and housed with unlimited access to food before the experiment while water available. Each group except the control group was oral administration of TP (CN) single drug decoction, TP-TF co-decoction (CM) and TP-TF mixed decoction (CB) at a dosage of 5 g/kg, 10 g/kg, 10 g/kg body weight, respectively. Blood samples (0.5 mL) were collected at certain time points and placed at a 1.5 mL tube before oral (0 min) and after oral (5, 15, 30, 45, 60, 120, 240, 360, 480, 720 and 1440 min) administration. Afterwards all the blood samples were centrifuged at 13,000 rpm for 10 min and stored at −80 °C until analysis.
# The mean plasma concentration-time profiles of typhaneoside, vanillic acid and p-coumaric acid were determined after oral administration with different compatibility of Typhae Pollen-Trogopterus Feces drug pair in rats, the concentration-time curves are presents in Fig. 3, and the noncompartment model pharmacokinetic parameters including maximum plasma concentration (Cmax), time to reach the maximum concentrations (Tmax), half-time (T1/2), area under concentration-time curve (AUC 0~t) are summarized in Table 2.
# [1] = plasma, 5 g/kg, oral TP single drug decoction (CN)
# [2] = plasma, 10 g/kg, oral TP-TF co-decoction (CM)
# [3] = plasma, 10 g/kg, oral TP-TF mixed decoction (CB)
# [4] = oral TP single drug decoction (CN), 5 g/kg
# [5] = oral TP-TF co-decoction (CM), 10 g/kg
# [6] = oral TP-TF mixed decoction (CB), 10 g/kg
# [7] = in vivo, 5 g/kg, oral TP single drug decoction (CN)
# [8] = in vivo, 10 g/kg, oral TP-TF co-decoction (CM)
# [9] = in vivo, 10 g/kg, oral TP-TF mixed decoction (CB)
Compound,Cmax [1] [µg/mL],Tmax [1] [h],half-life [1] [h],Cmax [2] [µg/mL],Tmax [2] [h],half-life [2] [h],Cmax [3] [µg/mL],Tmax [3] [h],half-life [3] [h],AUC0~t [4] [ng/h/mL],AUC0~t [5] [ng/h/mL],AUC0~t [6] [ng/h/mL],also measured
"O=C(O)/C=C/c1ccc(O)cc1 [P-coumaric acid, p-coumaric acid]",4.9 ± 1.89,1.08 ± 1.67,3.67 ± 1.82,5.11 ± 3.67,1.42 ± 1.39,10.1 ± 7.86,4.19 ± 0.844,0.46 ± 0.4,10.1 ± 10.2,36881.01 ± 25783.25,41512.56 ± 41763.28,17689.11 ± 3882.21,
"COc1cc(-c2oc3cc(O)cc(O)c3c(=O)c2O[C@@H]2O[C@H](CO[C@@H]3O[C@@H](C)[C@H](O)[C@@H](O)[C@H]3O)[C@@H](O)[C@H](O)[C@H]2O[C@@H]2O[C@@H](C)[C@H](O)[C@@H](O)[C@H]2O)ccc1O [Typhaneoside, typhaneoside]",,,,,,,,,,268.31 ± 167.71,333.46 ± 191.84,275.62 ± 206.06,Cmax [7]: 0.0764 ± 0.0532 µg/mL; Tmax [7]: 2.95 ± 2.88 h; half-life [7]: 3.35 ± 2.58 h; Cmax [8]: 0.371 ± 0.316 µg/mL; Tmax [8]: 0.24 ± 0.15 h; half-life [8]: 1.91 ± 1.26 h; Cmax [9]: 0.214 ± 0.0737 µg/mL; Tmax [9]: 0.21 ± 0.08 h; half-life [9]: 1.37 ± 0.54 h
"COc1cc(C(=O)O)ccc1O [Vanillic acid, vanillic acid]",2.21 ± 1.19,1.25 ± 0.71,3.69 ± 0.87,3.87 ± 2.53,1.47 ± 3.2,11.2 ± 13.6,1.45 ± 0.501,0.17 ± 0.09,8.88 ± 3.76,10445.53 ± 4148.68,14137.57 ± 4540.37,6193.78 ± 4499.17,
